According to US20030129262A1, “Methionine restriction for cancer therapy” (priority 2001, published 2003):
Counter-ions that a name gives are not always drawn. Starred links: 1 amine or outer side, 2 acyl side, 3 side chain; linkers in the order of their positions; H or OH if unused. Positions of bridges follow the written chain, without caps; N, C: chain ends. Non-standard residues stand in square brackets, D forms with d. Residues, ends and D or L forms follow the SMILES beside them. Chains are numbered I, II in the order given. Actinocin(9to1) = Cc1c2oc3c(C)ccc(C(=O)[*:1])c3nc-2c(C(=O)[*:2])c(N)c1=O; NMeV = CN[C@H](C(=O)O)C(C)C; Sar = CNCC(=O)O

Columns and labels:
thymidylate synthase [1] = assay: Thymidylate synthase (TS) assay in PC-3 cells; assay type: cell-based, Human; conditions: PC3 cells, within 8 hours
Procedure: (§1) Human prostate cancer PC3 cells (American Type Culture Collection, Rockville, Md.) were maintained in RPMI-1640 (Life Technologies, Inc., Gaithersburg, Md.) supplemented with 10% FBS (HyClone Laboratories, Logan, Utah) at 37° C. in 5% CO2. Methionine restriction experiments were performed in methionine-free RPMI-1640 (Life Technologies, Inc.) supplemented with 10% FBS and 100 μM Homocysteine (Sigma, St. Louis). Folate restriction experiments were performed in folate-free RPMI-1640 medium (Life Technologies, Inc.) supplemented with 10% FBS. Primary culture prostate epithelial cells (PrEC) were purchased from BioWhittaker, Inc. and Clonetics Products (Walkersville, Md.). PrEC was maintained in the prostate epithelial basal medium and methionine restriction was performed in prostate epithelial cell labeling medium without methionine supplemented with 100 μM homocysteine, which were obtained from the company.
TS assay was performed as previously described (24). Briefly, 25 μl of cell extract containing 50 μg protein, 5 μl 6.5 mM 5,10-CH2-THF, and 10 μl of Tris.HCl buffer were combined at room temperature. […] After centrifugation, 150 μl of the supernatant were counted by liquid scintillation. […]

thymidylate synthase [2] = assay: Western blot of TS protein in PC3 cells; assay type: cell-based, Human
Procedure: as §1
Aliquots of samples with 50 μg of protein, determined by the Bradford assay (BioRad, Hercules, Calif.), were mixed with loading buffer (final concentrations of 62.5 mM Tris-HCl (pH 6.8), 2.3% SDS, 100 mM dithiothreitol, and 0.005% bromophenol blue), boiled, fractionated in a 10% SDS-PAGE, and transferred onto a 0.45-μm nitrocellulose membrane by electroblotting (BioRad). […]

PC-3 cells [3] = assay: HPLC analysis of nucleotide levels; assay type: cell-based, Human; conditions: positive control for TS inhibition
Procedure: Cells were washed with phosphate buffered saline (PBS), trypsinized, washed again with PBS, counted, and pelleted. 5×10^5 cells from each sample were mixed with 10 μL 0.6 M trichloroacetic acid. The lysate was incubated at 4° C. for 30 minutes. After centrifugation, the acidic supernatant was transferred to a microcentrifuge tube. An equal volume of ice cold 80% 1,1,2-trichlorotrifluoroethane and 20% tri-n-octylamine was added to the lysate. The mixture was vortexed for 15 seconds and then centrifuged at 14000 g at 4° C. for 5 minutes. The aqueous supernatant was removed and centrifuged at 14000 g at 4° C. for 5 minutes. Samples were stored at −70° C. until use.used.
Clromatographic analyses were performed with a Waters 625 LC System (Waters Corporation, Milford, Mass., USA) consisting of a Waters 625 Fluid Handling Unit with a Rheodyne 9125-080 Manual Injector and 20 μL sample loop, 625E Powerline Controller, and 484 Tunable UV Detector. […]
A series of standards containing varying amounts of dUMP and dTTP ranging from […] was analyzed using the above methodology. The different quantities and their correlating absorption areas existed in a linear relationship. […] This linear equation was used to calculate the quantity of dUMP or dTTP represented by the absorption peaks in the chromatograms generated from our experimental samples.

[4] = cited from earlier work
GBM at recurrence = conditions: single agent, cited from earlier work
Yoshida sarcoma = conditions: coadministered with methionine depleted diet, 1.0 mg/kg/day on days 2, 4, 6; cited from earlier work
multiple myeloma = conditions: oral administration; cited from earlier work
[5] = test system: human breast carcinoma (MX-t) cell line; conditions: combined with methionine depletion; cited from earlier work
Hela cells = assay: Western blot of caspases, BID, Bcl-2, Hela
PC-3 cells [6] = assay: Western blot of caspases, BID, Bcl-2, PC-3; assay type: cell-based, Human
[7] = test system: Hodgkin's Disease and testicular tumors; conditions: in vivo; cited from earlier work

O=c1[nH]cc(F)c(=O)[nH]1 [5-FU, 5-fluorouracil]
inhibition of TS activity (thymidylate synthase [1]): 95%
TS protein accumulation in response to 5-FU (thymidylate synthase [2]; concurrent methionine restriction): largely abrogated
TS protein level (thymidylate synthase [2]; western blot): dramatically increased
dUMP/dTTP ratio (PC-3 cells [3]): dramatic increase

Cc1c2oc3c(C)ccc(C(=O)N[C@@H]4C(=O)N[C@H](C(C)C)C(=O)N5CCC[C@H]5C(=O)N(C)CC(=O)N(C)[C@@H](C(C)C)C(=O)O[C@@H]4C)c3nc-2c(C(=O)N[C@@H]2C(=O)N[C@H](C(C)C)C(=O)N3CCC[C@H]3C(=O)N(C)CC(=O)N(C)[C@@H](C(C)C)C(=O)O[C@@H]2C)c(N)c1=O [Actinomycin D] (I: T[dV]P[Sar][NMeV] / II: T[dV]P[Sar][NMeV]; ester I:1-I:C, II:1-II:C; linker I:N-II:N via Actinocin(9to1))
fraction of the dose excreted intact into the bile ([4]; in vivo): Half

O=NN(CCCl)C(=O)NCCCl [Carmustine, 1,3bis (2-chloroethyl)-1-nitrosourea]
Response rate (responders plus stable disease) (GBM at recurrence; Berger et al., 1996): 29%
median time to progression (GBM at recurrence): 22 weeks

COc1cccc2c1C(=O)c1c(O)c3c(c(O)c1C2=O)C[C@@](O)(C(=O)CO)C[C@@H]3O[C@H]1C[C@H](N)[C@H](O)[C@H](C)O1 [Doxorubicin, 5,12-Naphthacenedione, (8s-cis)-10-[(3-amino-2,3,6-trideoxy-a-L-lyxo-hexopyranosyl)oxy]-7,8,9,10-tetrahydro-6,8,11-trihydroxy-8-(hydroxyacetyl)-1-methoxy-hydrochloride]
effectiveness (reduced tumor weight, increased survivability) (Yoshida sarcoma): enhanced effectiveness

O=NN(CCCl)C(=O)NC1CCCCC1 [Lomustine, 1-(2-chloro-ethyl)-3-cyclohexyl-1 nitrosourea]
fraction of radioactivity excreted as degradation products ([4]; oral, 30 mg/m^2 to 100 mg/m^2, within 24 hours): about half

N[C@@H](Cc1ccc(N(CCCl)CCCl)cc1)C(=O)O [Melphalan, 4-[bis(2-chloroethyl)amino]-L-phenylalanine]
fraction of patients with favorable response (multiple myeloma): one third to one half

N.N.[Cl][Pt][Cl] [cisplatin, Cisplatin]
Treated tumor growth, % of growth in control mice tumors [5]: 32%

CN[C@@H]1C[C@H]2O[C@@](C)([C@@H]1OC)n1c3ccccc3c3c4c(c5c6ccccc6n2c5c31)C(=O)NC4 [staurosporine]
active (cleaved) form of caspases by western blot (Hela cells): detectable

CC(=O)O[C@H]1C(=O)[C@@]2(C)[C@H]([C@H](OC(=O)c3ccccc3)[C@]3(O)C[C@H](OC(=O)[C@H](O)[C@@H](NC(=O)c4ccccc4)c4ccccc4)C(C)=C1C3(C)C)[C@]1(OC(C)=O)CO[C@@H]1C[C@@H]2O [taxol, Taxol]
Bcl-2 phosphorylation (upward shift on western blot) (PC-3 cells [6]): phosphorylated
Bcl-2 phosphorylation (upward shift on western blot) (Hela cells): phosphorylated

Bleomycin
time until improvement is noted [7]: ≤ 2 weeks
